# From article PMC7179653 (Antimicrobial Agents and Chemotherapy, 2020)
# Assay: SAD study: safety and tolerability (TEAEs)
# Assay type: in vivo, human
# Conditions: for TEAE: Abdominal pain / TEAE: Application site rash / TEAE: Chest discomfort / TEAE: Cough / TEAE: Fatigue / TEAE: Feeling hot / TEAE: Headache / TEAE: Nasal congestion / TEAE: Rhinitis / TEAE: Sinus tachycardia / ≥1 TEAE / ≥1 drug-related TEAE / ≥1 serious TEAE / ≥1 severe TEAE: n = 6
# Protocol: The two studies were randomized, double-blind, placebo-controlled studies that enrolled participants into sequential treatment cohorts using a 3:1 active treatment-to-placebo randomization ratio.
# A sentinel dosing strategy was employed in both studies. […] In all cohorts, escalation to the next dose occurred after a safety review of the previous cohort. In the MAD study, sentinel dosing was performed in part 3, wherein participants were evaluated for safety up to 24 h after administration of the first drug combination (or placebo) on day 3, prior to enrolling additional participants.
# Safety assessments included monitoring of AEs, laboratory safety tests (hematology, serum chemistry, and urinalysis), 12-lead ECG (discrete recordings and 24-h Holter recording), and vital signs (blood pressure, pulse rate, and body temperature). In the SAD study, safety assessments were performed predose at screening, at day 1, postdose periodically on days 1, 2, and 7 (follow-up), and at early withdrawal, if relevant. Blood samples for pharmacokinetic profiling in the SAD study were collected on day 1 before the morning infusion and 0.5, 1, 1.5, 2, 3, 4, 6, 8, 12, and 24 h postinfusion start. In the MAD study, safety assessments were done predose at screening, at day 2, postdose periodically on days 1, 2, 4, 7, and 8, on days 13 to 15 (follow-up), and at early withdrawal, if relevant. In the MAD study, blood samples were collected on days 1 and 9 prior to the morning infusion and 0.5, 1, 1.5, 2, 3, 4, 6, 8, and 12 h (on day 9 only) postinfusion start. On all other days, a single predose sample was collected for pharmacokinetic evaluation prior to the morning infusion. Blood was collected into lithium-heparin tubes and stored at a nominal –80°C temperature until analysis.
smiles,measurement,setting,value
NCCONC(=O)[C@@H]1CC[C@@H]2CN1C(=O)N2OS(=O)(=O)O [Nacubactam],TEAE: Abdominal pain,"SAD, 50 mg",0 n/E
same,TEAE: Application site rash,"SAD, 50 mg",0 n/E
same,TEAE: Chest discomfort,"SAD, 50 mg",1/1
same,TEAE: Cough,"SAD, 50 mg",0 n/E
same,TEAE: Fatigue,"SAD, 50 mg",1/1
same,TEAE: Feeling hot,"SAD, 50 mg",0 n/E
same,TEAE: Headache,"SAD, 50 mg",0 n/E
same,TEAE: Nasal congestion,"SAD, 50 mg",1/1
same,TEAE: Rhinitis,"SAD, 50 mg",0 n/E
same,TEAE: Sinus tachycardia,"SAD, 50 mg",0 n/E
same,≥1 TEAE,"SAD, 50 mg",2/3
same,≥1 drug-related TEAE,"SAD, 50 mg",0 n/E
same,≥1 serious TEAE,"SAD, 50 mg",0 n
same,≥1 severe TEAE,"SAD, 50 mg",0 n
same,TEAE: Abdominal pain,"SAD, 150 mg",0 n/E
same,TEAE: Application site rash,"SAD, 150 mg",0 n/E
same,TEAE: Chest discomfort,"SAD, 150 mg",0 n/E
same,TEAE: Cough,"SAD, 150 mg",1/1
same,TEAE: Fatigue,"SAD, 150 mg",0 n/E
same,TEAE: Feeling hot,"SAD, 150 mg",1/1
same,TEAE: Headache,"SAD, 150 mg",0 n/E
same,TEAE: Nasal congestion,"SAD, 150 mg",0 n/E
same,TEAE: Rhinitis,"SAD, 150 mg",0 n/E
same,TEAE: Sinus tachycardia,"SAD, 150 mg",1/1
same,≥1 TEAE,"SAD, 150 mg",1/3
same,≥1 drug-related TEAE,"SAD, 150 mg",0 n/E
same,≥1 serious TEAE,"SAD, 150 mg",0 n
same,≥1 severe TEAE,"SAD, 150 mg",0 n
same,TEAE: Abdominal pain,"SAD, 500 mg",0 n/E
same,TEAE: Application site rash,"SAD, 500 mg",0 n/E
same,TEAE: Chest discomfort,"SAD, 500 mg",0 n/E
same,TEAE: Cough,"SAD, 500 mg",0 n/E
same,TEAE: Fatigue,"SAD, 500 mg",0 n/E
same,TEAE: Feeling hot,"SAD, 500 mg",0 n/E
same,TEAE: Headache,"SAD, 500 mg",1/1
same,TEAE: Nasal congestion,"SAD, 500 mg",0 n/E
same,TEAE: Rhinitis,"SAD, 500 mg",1/1
same,TEAE: Sinus tachycardia,"SAD, 500 mg",0 n/E
same,≥1 TEAE,"SAD, 500 mg",2/2
same,≥1 drug-related TEAE,"SAD, 500 mg",0 n/E
same,≥1 serious TEAE,"SAD, 500 mg",0 n
same,≥1 severe TEAE,"SAD, 500 mg",0 n
same,TEAE: Abdominal pain,"SAD, 1,000 mg",1/1
same,TEAE: Application site rash,"SAD, 1,000 mg",0 n/E
same,TEAE: Chest discomfort,"SAD, 1,000 mg",0 n/E
same,TEAE: Cough,"SAD, 1,000 mg",0 n/E
same,TEAE: Fatigue,"SAD, 1,000 mg",1/1
same,TEAE: Feeling hot,"SAD, 1,000 mg",0 n/E
same,TEAE: Headache,"SAD, 1,000 mg",0 n/E
same,TEAE: Nasal congestion,"SAD, 1,000 mg",0 n/E
same,TEAE: Rhinitis,"SAD, 1,000 mg",0 n/E
same,TEAE: Sinus tachycardia,"SAD, 1,000 mg",0 n/E
same,≥1 TEAE,"SAD, 1,000 mg",2/2
same,≥1 drug-related TEAE,"SAD, 1,000 mg",0 n/E
same,≥1 serious TEAE,"SAD, 1,000 mg",0 n
same,≥1 severe TEAE,"SAD, 1,000 mg",0 n
same,TEAE: Abdominal pain,"SAD, 2,000 mg",0 n/E
same,TEAE: Application site rash,"SAD, 2,000 mg",0 n/E
same,TEAE: Chest discomfort,"SAD, 2,000 mg",0 n/E
same,TEAE: Cough,"SAD, 2,000 mg",0 n/E
same,TEAE: Fatigue,"SAD, 2,000 mg",0 n/E
same,TEAE: Feeling hot,"SAD, 2,000 mg",0 n/E
same,TEAE: Headache,"SAD, 2,000 mg",1/1
same,TEAE: Nasal congestion,"SAD, 2,000 mg",0 n/E
same,TEAE: Rhinitis,"SAD, 2,000 mg",0 n/E
same,TEAE: Sinus tachycardia,"SAD, 2,000 mg",0 n/E
same,≥1 TEAE,"SAD, 2,000 mg",1/1
same,≥1 drug-related TEAE,"SAD, 2,000 mg",1/1
same,≥1 serious TEAE,"SAD, 2,000 mg",0 n
same,≥1 severe TEAE,"SAD, 2,000 mg",0 n
same,total number of AEs,"SAD, all nacubactam doses, 30 participants",11
same,participants reporting one or more AEs,"SAD, all nacubactam doses, eight of the 30 participants",26.7%
